Laboratory results taken from article PMC8391922, “The Combined Effect of Branching and Elongation on the Bioactivity Profile of Phytocannabinoids. Part I: Thermo-TRPs” (Biomedicines, 2021).
Read-outs that look alike come from different tables or passages of the source.

How the values were obtained:
Type in all cases: cell-based
[1] = biological target: T1, human TRPV1 (Homo sapiens, UniProt Q8NER1); assay: TRPV1-mediated elevation of intracellular Ca2+ (Fluo-4) in transfected HEK-293 cells; settings: for TRPV1 Efficacy (% IM 4 μM): percentage of the response to ionomycin 4 μM, HEK-293
T1 construct: expressed in transfected cells; host or cells: HEK-293
Method: (§1) Assays of rat TRPA1, TRPV2, TRPV3, TRPV4, and TRPM8 or human TRPV1 mediated elevation of intracellular Ca ^2+ in transfected HEK-293 cells were performed with a continuous monitoring of [Ca ^2+]i during the experiments. […] Cell fluorescence before and after the addition of various concentrations of test compounds was measured, normalizing the effects against the response to ionomycin (IM, 4 μM). The values of the effect on [Ca^2+]i in HEK-293 cells not transfected were used as baseline and subtracted from the values obtained from transfected cells. For TRPA1, agonist efficacy was expressed as a percentage of the effect on [Ca ^2+]i observed with 100 μM allylisothiocyanate. […] In the TRPV3 assay, TRPV3-expressing HEK293 cells were first sensitized with the structurally unrelated agonist 2-aminoethoxydiphenyl borate (100 μM). Antagonist/desensitizing behavior is evaluated against the agonist of the TRP analyzed by adding the compounds directly in the quartz cuvette 5 min before stimulation of cells with the agonist. […] Dose-response curve fitting (sigmoidal dose-response variable slope) and parameter estimation were performed with Graph-Pad Prism8 (GraphPad Software Inc., San Diego, CA, USA). All determinations were performed at least in triplicate.

[2] = biological target: T2, rat TRPM8 (Rattus norvegicus, UniProt Q8R455); assay: TRPM8 antagonism of icilin-induced intracellular Ca2+ elevation (Fluo-4) in transfected HEK-293 cells; settings: compound added 5 min before agonist icilin 0.25 μM
T2 construct: expressed in transfected cells; host or cells: HEK-293
Method: as §1

[3] = biological target: T3, rat TRPV3 (Rattus norvegicus, UniProt Q4QYD9); assay: TRPV3-mediated elevation of intracellular Ca2+ (Fluo-4) in transfected HEK-293 cells; settings: for IC50: antagonist/desensitizing, compound added 5 min before agonist thymol 100 μM; for EC50: half-maximal increase in [Ca2+]i, HEK-293, read-out: TRPV3 Potency EC50; for TRPV3 Efficacy (% IM 4 μM): percentage of the response to ionomycin 4 μM, cells sensitized with 2-aminoethoxydiphenyl borate 100 μM
T3 construct: expressed in transfected cells; host or cells: HEK-293
T3 sequence (Q4QYD9 1-791): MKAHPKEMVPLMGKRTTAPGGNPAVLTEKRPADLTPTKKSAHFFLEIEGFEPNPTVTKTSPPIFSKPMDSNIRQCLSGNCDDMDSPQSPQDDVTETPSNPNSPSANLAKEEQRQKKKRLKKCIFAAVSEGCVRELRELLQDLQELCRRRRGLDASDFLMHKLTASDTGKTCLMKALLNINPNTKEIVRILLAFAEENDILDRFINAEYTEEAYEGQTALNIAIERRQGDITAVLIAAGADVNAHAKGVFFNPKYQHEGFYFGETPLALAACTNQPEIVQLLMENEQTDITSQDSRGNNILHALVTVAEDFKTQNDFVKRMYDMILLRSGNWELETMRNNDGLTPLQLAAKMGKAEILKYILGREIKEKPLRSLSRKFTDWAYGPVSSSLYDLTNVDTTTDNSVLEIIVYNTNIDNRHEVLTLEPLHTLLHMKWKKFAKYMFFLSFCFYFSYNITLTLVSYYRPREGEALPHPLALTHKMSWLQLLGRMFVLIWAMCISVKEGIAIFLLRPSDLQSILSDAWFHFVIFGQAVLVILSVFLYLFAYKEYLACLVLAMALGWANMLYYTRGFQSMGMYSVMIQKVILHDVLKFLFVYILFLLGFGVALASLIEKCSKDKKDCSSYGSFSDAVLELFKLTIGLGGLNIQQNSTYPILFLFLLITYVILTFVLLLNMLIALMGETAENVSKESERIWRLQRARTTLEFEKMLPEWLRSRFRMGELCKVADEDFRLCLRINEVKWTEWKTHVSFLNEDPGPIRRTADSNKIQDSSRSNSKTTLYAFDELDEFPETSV
Method: Effects of compounds on intracellular Ca^2+ concentration ([Ca^2+]i) were determined using Fluo-4, a selective intracellular fluorescent probe for Ca ^2+. Assays of rat TRPA1, TRPV2, TRPV3, TRPV4, and TRPM8 or human TRPV1 mediated elevation of intracellular Ca ^2+ in transfected HEK-293 cells were performed with a continuous monitoring of [Ca ^2+]i during the experiments. Briefly, human embryonic kidney (HEK-293) cells, stably transfected with rat TRPA1, TRPV2, TRPV3, TRPV4, and TRPM8 or human TRPV1 (selected by geneticin 600 μg mL ^−1) or not transfected, were cultured in EMEM+ 2 mM glutamine + 1% nonessential amino acids +10% FBS and maintained at 37 °C with 5% CO2. TRP-HEK-293 cells express stably high levels of TRP transcripts, while these transcripts were virtually absent in wild-type HEK-293 cells as checked by real-time PCR. On the day of the experiment, the cells were loaded for 1 h in the dark at room temperature with Fluo-4 AM (4 μM in DMSO containin 0.02% Pluronic F-127). The cells were rinsed, resuspended in Tyrode’s solution (145 mM NaCl, 2.5 mM KCl, 1.5 mM CaCl2, 1.2 mM MgCl2, 10 mM D-glucose, and 10 mM HEPES, pH 7.4), and transferred to a quartz cuvette of a spectrofluorimeter (PerkinElmer LS50B; λEX = 488 nm, λEM = 516 nm) equipped with a PTP-1 fluorescence Peltier system (PerkinElmer Life and Analytical Sciences, Waltham, MA, USA) under continuous stirring. Cell fluorescence before and after the addition of various concentrations of test compounds was measured, normalizing the effects against the response to ionomycin (IM, 4 μM). The values of the effect on [Ca^2+]i in HEK-293 cells not transfected were used as baseline and subtracted from the values obtained from transfected cells. For TRPA1, agonist efficacy was expressed as a percentage of the effect on [Ca ^2+]i observed with 100 μM allylisothiocyanate. The potency of the compounds (EC50 values) is determined as the concentration required to produce half-maximal increases in [Ca ^2+]i. In the TRPV3 assay, TRPV3-expressing HEK293 cells were first sensitized with the structurally unrelated agonist 2-aminoethoxydiphenyl borate (100 μM). Antagonist/desensitizing behavior is evaluated against the agonist of the TRP analyzed by adding the compounds directly in the quartz cuvette 5 min before stimulation of cells with the agonist. Allylisothiocyanate (100 μM) was used for TRPA1, capsaicin (0.1 μM) for TRPV1, cannabidiol (2 μM) for TRPV2, thymol (100 μM) for TRPV3, GSK1016790A (10 nM) for TRPV4, and icilin (0.25 μM) for TRPM8. The IC50 value was expressed as the concentration exerting a half-maximal inhibition of agonist effect, taking as 100% the effect on [Ca^2+]i exerted by the agonist alone. Dose-response curve fitting (sigmoidal dose-response variable slope) and parameter estimation were performed with Graph-Pad Prism8 (GraphPad Software Inc., San Diego, CA, USA). All determinations were performed at least in triplicate.

[4] = antagonist/desensitizing, compound added 5 min before agonist capsaicin 0.1 μM
[5] = antagonist/desensitizing, compound added 5 min before agonist capsaicin 0.1 μM, read-out: IC50 TRPV1
[6] = antagonist, read-out: IC50 TRPM8

T1 sequence (Q8NER1 whole entry): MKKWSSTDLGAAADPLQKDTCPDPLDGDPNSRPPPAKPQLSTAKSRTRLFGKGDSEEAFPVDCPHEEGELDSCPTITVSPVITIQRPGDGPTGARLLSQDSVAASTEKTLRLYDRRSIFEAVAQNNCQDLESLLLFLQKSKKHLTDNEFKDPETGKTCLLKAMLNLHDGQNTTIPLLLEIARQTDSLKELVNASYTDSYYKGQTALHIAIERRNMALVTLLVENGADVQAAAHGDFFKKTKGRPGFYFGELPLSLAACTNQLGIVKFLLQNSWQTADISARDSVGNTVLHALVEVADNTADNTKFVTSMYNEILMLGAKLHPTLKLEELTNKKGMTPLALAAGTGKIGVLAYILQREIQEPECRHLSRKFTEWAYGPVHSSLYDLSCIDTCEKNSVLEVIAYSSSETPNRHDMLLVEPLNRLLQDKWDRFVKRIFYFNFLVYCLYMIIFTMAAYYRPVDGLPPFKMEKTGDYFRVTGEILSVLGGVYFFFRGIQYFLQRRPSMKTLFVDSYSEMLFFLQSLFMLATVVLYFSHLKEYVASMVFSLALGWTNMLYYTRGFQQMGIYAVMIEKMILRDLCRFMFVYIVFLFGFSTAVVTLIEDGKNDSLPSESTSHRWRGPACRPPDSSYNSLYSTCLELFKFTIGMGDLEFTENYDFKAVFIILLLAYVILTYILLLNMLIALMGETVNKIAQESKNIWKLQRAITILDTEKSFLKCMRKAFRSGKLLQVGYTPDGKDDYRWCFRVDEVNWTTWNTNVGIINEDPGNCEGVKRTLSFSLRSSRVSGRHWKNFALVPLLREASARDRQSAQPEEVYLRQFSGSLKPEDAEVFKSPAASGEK
T2 sequence (Q8R455 whole entry): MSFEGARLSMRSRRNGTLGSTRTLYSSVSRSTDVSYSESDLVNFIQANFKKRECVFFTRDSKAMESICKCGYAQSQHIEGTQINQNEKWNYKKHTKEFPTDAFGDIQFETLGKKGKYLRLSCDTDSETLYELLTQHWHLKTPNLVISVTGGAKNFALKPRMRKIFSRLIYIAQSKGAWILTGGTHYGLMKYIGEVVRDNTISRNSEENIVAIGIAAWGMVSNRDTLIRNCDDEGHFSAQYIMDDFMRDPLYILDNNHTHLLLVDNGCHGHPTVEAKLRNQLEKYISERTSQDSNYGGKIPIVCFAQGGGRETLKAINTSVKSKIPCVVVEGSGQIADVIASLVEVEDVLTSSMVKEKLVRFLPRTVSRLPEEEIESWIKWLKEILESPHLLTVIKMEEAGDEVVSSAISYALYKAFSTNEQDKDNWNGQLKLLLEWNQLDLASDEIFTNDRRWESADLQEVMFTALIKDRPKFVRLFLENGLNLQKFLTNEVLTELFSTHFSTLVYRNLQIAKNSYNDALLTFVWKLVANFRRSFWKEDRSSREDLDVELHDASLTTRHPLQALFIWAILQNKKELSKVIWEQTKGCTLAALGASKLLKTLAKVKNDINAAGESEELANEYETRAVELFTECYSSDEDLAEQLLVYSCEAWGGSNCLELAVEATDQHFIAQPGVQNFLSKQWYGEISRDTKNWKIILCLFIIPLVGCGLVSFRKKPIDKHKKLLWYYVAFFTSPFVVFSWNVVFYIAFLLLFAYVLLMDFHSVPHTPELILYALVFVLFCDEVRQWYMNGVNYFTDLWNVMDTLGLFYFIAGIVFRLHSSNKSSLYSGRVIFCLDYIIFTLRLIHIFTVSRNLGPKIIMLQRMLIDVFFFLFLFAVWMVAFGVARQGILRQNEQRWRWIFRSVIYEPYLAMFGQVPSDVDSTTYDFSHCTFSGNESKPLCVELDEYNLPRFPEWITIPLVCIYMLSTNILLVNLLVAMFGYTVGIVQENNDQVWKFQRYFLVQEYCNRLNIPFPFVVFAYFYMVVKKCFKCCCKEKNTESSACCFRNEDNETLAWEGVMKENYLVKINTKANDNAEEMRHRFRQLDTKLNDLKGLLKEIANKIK

Row | SMILES | IC50 TRPV1 [1, 4] | IC50 [1, 5] [µM] | TRPV1 Efficacy (% IM 4 μM) [1] [%] | IC50 [2, 6] [µM] | IC50 [3] [µM] | EC50 [3] [µM] | TRPV3 Efficacy (% IM 4 μM) [3] [%] | IC50 [1] [µM] | IC50 ([2]; IC50 TRPM8, antagonist) [µM] | EC50 [1] [µM] | IC50 TRPM8 ([2]; antagonist)
1 | C=C(C)[C@@H]1CCC(C)=C[C@H]1c1c(O)cc(C(C)(C)CCCCCC)cc1O [1b, Depentyl-α,α-dimethylheptyl-cannabidiol] | inactive | > 100 | < 10 | 13.4 ± 2.1 | 32.6 ± 5.1 | 11 ± 1.1 | 15.8 ± 0.4 | – | – | – | –
2 | CCCCCCC(C)(C)c1cc(O)c(C/C=C(\C)CCC=C(C)C)c(O)c1 [7b, Depentyl-α,α-dimethylheptyl-cannabigerol] | inactive | – | < 10 | – | 35.4 ± 3.6 | 39.7 ± 0.03 | 64.6 ± 4.8 | > 100 | 9.2 ± 0.8 | – | –
3 | CCCCCCC(C)(C)c1cc(O)c2c(c1)OC(C)(CCC=C(C)C)C=C2 (stereo not drawn) [8b, Depentyl-α,α-dimethylheptyl-cannabichromene] | – | – | 18.9 ± 0.2 | – | > 50 | > 50 | 41.6 ± 1.8 | > 100 | > 100 | 12.8 ± 0.9 | totally inactive
4 | CCCCCCCc1cc(O)c2c(c1)OC(C)(CCC=C(C)C)C=C2 (centres unmarked) [8c, Depentyl-5-n-heptylcannabichromene] | – | > 100 | <10 | > 100 | > 100 | – | <10 | – | – | – | –
5 | CCCCC(C)(C)c1cc(O)c2c(c1)OC(C)(CCC=C(C)C)C=C2 (stereo not drawn) [8d, Depentyl-5-α,α-dimethylpentylcannabichromene] | – | > 100 | <10 | 23.6 ± 7.4 | > 100 | – | <10 | – | – | – | –
